Measurements as given in the CheMixHub viscosity set.

Assay: xn = mol fraction of the nth substance listed
Conditions: 101 kPa

CS(C)=O + CC#N
viscosity [mPa·s]
Conditions	298 K	298.15 K	303.15 K	308 K	308.15 K	313.15 K	318 K	318.15 K
x1 = 0.2	0.5206	0.477	–	–	–	–	0.3814	–
x1 = 0.4	0.8409	0.687	–	0.6302	–	–	0.4513	–
x1 = 0.6	1.16	0.987	–	0.8402	–	–	–	–
x1 = 0.8	1.42	1.42	–	1.161	–	–	0.8203	–
x2 = 0.0249	–	1.911	1.762	–	1.61	1.484	–	1.348
x2 = 0.0518	–	1.824	1.684	–	1.544	1.425	–	1.295
x2 = 0.0759	–	1.75	1.617	–	1.485	1.371	–	1.247
x2 = 0.1079	–	1.658	1.531	–	1.405	1.298	–	1.18
x2 = 0.157	–	1.527	1.406	–	–	–	–	1.082
x2 = 0.1998	–	1.422	1.306	–	1.194	1.098	–	1
x2 = 0.2609	–	1.281	–	–	1.066	0.9759	–	0.8875
x2 = 0.3034	–	1.188	1.085	–	0.9838	0.898	–	0.8161
x2 = 0.3548	–	1.082	0.9867	–	0.8905	0.8098	–	0.7348
x2 = 0.411	–	0.9742	0.8848	–	0.7978	0.7219	–	0.6547
x2 = 0.4696	–	0.8699	0.7875	–	0.7092	0.6398	–	0.5794
x2 = 0.5084	–	0.8053	0.7285	–	0.6554	0.591	–	0.5348
x2 = 0.5566	–	0.7292	0.6595	–	0.5949	0.5366	–	0.4864
x2 = 0.6053	–	0.6586	0.5945	–	0.5379	0.4862	–	0.4403
x2 = 0.6666	–	0.5821	0.5266	–	0.4786	0.435	–	0.3971
x2 = 0.7114	–	0.5345	0.4841	–	0.4428	0.4044	–	0.37
x2 = 0.7688	–	0.4819	0.4392	–	0.4048	0.3727	–	0.3423
x2 = 0.8081	–	0.4514	0.4129	–	0.3833	0.3554	–	0.3298
x2 = 0.851	–	0.4225	0.3905	–	0.3645	0.3396	–	0.3178
x2 = 0.9009	–	0.3934	0.368	–	0.3459	0.3257	–	0.3062
x2 = 0.9502	–	0.3658	0.3478	–	0.3285	–	–	–
